Molecular target: Serine protease 1 (Homo sapiens, UniProt P07477)
Experiment: Enzymatic Activity Assay
Protocol: Human serine protease enzymes plasmin, thrombin and trypsin were assayed for enzymatic activity using an appropriate fluorogenic substrate. Protease activity was measured by monitoring the accumulation of liberated fluorescence from the substrate over 5 minutes. The linear rate of fluorescence increase per minute was expressed as percentage (%) activity. The Km for the cleavage of each substrate was determined by standard transformation of the Michaelis-Menten equation.

Sequence of Serine protease 1 (P07477 whole entry): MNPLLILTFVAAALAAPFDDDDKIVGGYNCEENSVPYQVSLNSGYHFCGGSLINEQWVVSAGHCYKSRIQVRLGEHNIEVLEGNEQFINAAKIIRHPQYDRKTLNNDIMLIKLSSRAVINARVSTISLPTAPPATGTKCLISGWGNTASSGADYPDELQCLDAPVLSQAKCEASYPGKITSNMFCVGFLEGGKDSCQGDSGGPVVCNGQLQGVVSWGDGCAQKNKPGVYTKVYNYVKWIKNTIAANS

## COCc1nn(Cc2ccc(Cn3cc(F)ccc3=O)cc2)cc1C(=O)NCc1nccc(OC)c1F [US11584735, Compound of Formula A]
  IC50: > 40 µM

From BindingDB's records for patent US11584735 (Kalvista Pharmaceuticals, 2023)
